Test results published in publication PMC5457702 (Molecular cancer therapeutics, 2017).
pIC50, pKd: −log10 of the molar value. Where two headings read alike, the source gives them in different places.

Columns and labels:
[1] = system: MM1.S cells; assay: Flow cytometry cell cycle analysis, MM1.S; type: cell-based, human; conditions: 0.5 μM, 24 h
[2] = system: UKE-1 cells; assay: Cell viability; type: cell-based, human; conditions: read-out: Cell growth inhibition IC50, UKE-1
[3] = system: SAOS2 cells; assay: Cell viability; type: cell-based, human; conditions: for pIC50: read-out: Cell growth inhibition IC50, SAOS2
[4] = system: MM1.S cells; assay: Cell viability; type: cell-based, human; conditions: 72 h, read-out: Cell growth inhibition IC50, MM1.S
[5] = system: HCC-78 cells; assay: Cell viability; type: cell-based, human; conditions: for pIC50: read-out: Cell growth inhibition IC50, HCC78
[6] = system: c-MYC, p-STAT3, c-PARP levels in MM1.S cells; assay: Immunoblotting of biomarkers in MM1.S; type: cell-based, human; conditions: 6 h drug exposure
[7] = system: UKE-1 cells; assay: Development of drug resistance in UKE-1 cells; type: cell-based, human; conditions: two months, starting at IC20
[8] = biological target: T1, BRD4-1 (Homo sapiens, UniProt O60885); assay: Differential scanning fluorimetry; type: binding; conditions: 100 μM inhibitor, 4 μM BRD4-1; mean of 3 experiments in quadruplicate
[9] = system: BRD4; conditions: read-out: IC50(BRD4); cited from earlier work
[10] = system: 931 cancer cell lines; assay: Cancer cell line screening; type: cell-based; conditions: 72 h, read-out: mean IC50 across cell line panel
[11] = biological target: T1, BRD4-1; assay: qPCR binding assay, BRD4-1; conditions: read-out: BRD4-1 Kd, qPCR; single experiment in duplicate
[12] = biological target: BRDT-1 (Homo sapiens, UniProt Q58F21); assay: Alpha Screen binding assay, BRDT-1; conditions: relative to BRD4

Row | Molecule | cell cycle effect / G1 arrest [1] | pIC50 ([2]; Homo sapiens, UKE1, 72 h) | pIC50 ([3]; Homo sapiens, SAOS-2, 72 h) | pIC50 ([4]; Homo sapiens, MM1.S) | pIC50 ([5]; Homo sapiens, HCC78, 72 h) | onset of apoptosis, c-PARP levels [6] | development of resistance upon prolonged exposure [7] | pIC50 ([2]; 72 h, Cell titer blue) | pIC50 ([3]; 72 h, Cell titer blue) | ΔTm, DSF [8] [°C] | pIC50 ([4]; Cell titer blue) | pIC50 ([5]; 72 h, Cell titer blue) | also measured
1 | CC(C)(C)c1cc(NC(=O)Nc2ccc(-c3cn4c(n3)sc3cc(OCCN5CCOCC5)ccc34)cc2)no1 [Quizartinib] | only slightly affected | 5.02 | < 5.00 | < 5.00 | < 5.00 | – | – | – | – | – | – | – | –
2 | N#CC[C@H](C1CCCC1)n1cc(-c2ncnc3[nH]ccc23)cn1 [Ruxolitinib] | only slightly affected | 6.77 | < 5.00 | < 5.00 | < 5.00 | ineffective | readily developed resistance | – | – | – | – | – | –
3 | Cc1cnc(Nc2ccc(N3CCN(C)CC3)cc2)nc1Nc1cccc(S(=O)(=O)NC(C)(C)C)c1 [TG101209] | moderate increase of cells in G1 | – | – | – | – | – | readily developed resistance | 6.49 | 5.82 | 6.8 | 5.85 | 5.72 | pIC50 [9]: […]
4 | Cc1cnc(Nc2ccc(OCCN3CCCC3)cc2)nc1Nc1cccc(S(=O)(=O)NC(C)(C)C)c1 [TG101348] | – | – | – | – | – | – | – | – | – | – | – | – | pIC50 [10]: 5.00
5 | (+)-JQ1 | – | – | – | – | – | ineffective | – | 6.68 | 5.82 | 8.8 | 7.00 | 5.59 | pKd [11]: 8.04; maximum fraction affected, SAOS-2 ([3]; 72 h, Hill fit): ~ 0.5; fold less active against BRDT-1 [12]: 7 fold; maximum fraction affected, HCC-78 ([5]; 72 h, Hill fit): ~ 0.5
